Earlier results, collected in patent US8202842B2, “Inhibition of cholera toxins by galatooligosaccharides (GOS)” (priority 2006, dated 2012).

Key:
cholera toxin = cholera toxin (Vibrio cholerae serotype O1, UniProt P01556); details: rabbit, in vivo
[1] = tested on: uropathogenic Escherichia coli; details: soluble, monovalent

cholera toxin, sequence (P01556 whole entry, looked up): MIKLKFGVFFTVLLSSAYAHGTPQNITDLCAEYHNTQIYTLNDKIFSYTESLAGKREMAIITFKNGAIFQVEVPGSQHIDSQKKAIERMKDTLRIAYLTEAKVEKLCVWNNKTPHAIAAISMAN

Molecule | Inhibition of fluid accumulation induced by cholera toxin (cholera toxin) | Interference with attachment and colonization of uropathogenic Escherichia coli [1]
3-sialyllactose | inhibitor of fluid accumulation | –
OC[C@H]1O[C@H](O[C@@H]2[C@H](O)[C@@H](O)[C@H](O[C@H]3[C@H](O)[C@@H](O)C(O)O[C@@H]3CO)O[C@@H]2CO)[C@H](O)[C@@H](O)[C@H]1O (some centres unmarked) [globotriose] | – | interfere with attachment and colonization
